Experiments:
NRF1 = assay: Test Example 1: real-time PCR of NRF1 mRNA expression in HHORSCs cultured with KIT13; format: cell-based; conditions: Human hair outer root sheath cells (HHORSCs), 5 µg/ml, 7 hours; mRNA normalized by 18S rRNA; vs culture medium not containing KIT13; FIG. 3
Method: (§1) Human hair outer root sheath cells (HHORSCs; manufactured by ScienCell Research Laboratories, #2420) were cultured for 7 hours in a culture medium containing 5 µg/ml of KIT13. As a culture medium for HHORSCs, a mesenchymal stem cell medium (manufactured by ScienCell Research Laboratories, #7501) was used. As a negative control, HHORSCs were cultured in a culture medium not containing KIT13.
(§2) RNA was extracted from cells using TRIzol (manufactured by Thermo Fisher Scientific). Subsequently, a first strand cDNA was prepared using PrimeScript RT Master Mix (manufactured by Takara), and mRNA expression of target genes and endogenous control genes was detected by real-time PCR using TB Green Premix Ex Taq II (manufactured by Takara) and T100 (trademark) Thermal Cycler (manufactured by BIO-RAD). The target genes were NAMPT, SIRT1, and NRF1, UQCRC1, and ATP5A1 whose expression is induced by activation of SIRT1 (Yuanyuan Huang, and ten others, "Resveratrol-induced Sirt1 phosphorylation by LKB1 mediates mitochondrial metabolism", J. Biol. Chem., 2021, 297(2), 100929). As the endogenous control gene, 18S ribosomal RNA (18S rRNA) was used, and measurement values of each gene were normalized by measurement values of 18S rRNA.

UQCRC1 = assay: Test Example 1: real-time PCR of UQCRC1 mRNA expression in HHORSCs cultured with KIT13; format: cell-based; conditions: Human hair outer root sheath cells (HHORSCs), 5 µg/ml, 7 hours; mRNA normalized by 18S rRNA; vs culture medium not containing KIT13; FIG. 4
Method: as §1, §2

SIRT1 [1] = assay: Test Example 1: real-time PCR of SIRT1 mRNA expression in HHORSCs cultured with KIT13; format: cell-based; conditions: Human hair outer root sheath cells (HHORSCs), 5 µg/ml, 7 hours; mRNA normalized by 18S rRNA; vs culture medium not containing KIT13; FIG. 2
Method: as §1, §2

NAMPT [2] = assay: Test Example 1: real-time PCR of NAMPT mRNA expression in HHORSCs cultured with KIT13; format: cell-based; conditions: Human hair outer root sheath cells (HHORSCs), 5 µg/ml, 7 hours; mRNA normalized by 18S rRNA; vs culture medium not containing KIT13; FIG. 1
Method: as §1, §2

NAMPT [3] = assay: Test Example 2: real-time PCR of NAMPT mRNA expression in femoral muscle of mice given KIT13; format: in vivo; conditions: four-week-old male c57BL6J mice, by drinking water, 20 µg/kg for four weeks; femoral muscles; mRNA normalized by β-actin; FIG. 6
Method: (§3) KIT13 was administered to four-week-old male c57BL6J mice (five mice per group, n = 5) by drinking water at a dose of 20 µg/kg for four weeks. Femoral muscles were collected from each mouse and analyzed as follows.
(§4) Femoral muscles were crushed by homogenization using 18G to 25G injection needles in Buffer A (0.25 M sucrose, 10 mM Hepes-KOH (pH 7.5), 1 mM EDTA, protease inhibitor cocktail), and RNA was extracted from the cells based on equal amounts of protein using TRIzol (manufactured by Thermo Fisher Scientific). Subsequently, a first strand cDNA was prepared using PrimeScript RT Master Mix (manufactured by Takara), and mRNA expression of target genes and endogenous control genes was detected by real-time PCR using TB Green Premix Ex Taq II (manufactured by Takara) and T100 (trademark) Thermal Cycler (manufactured by BIO-RAD). The target genes were NAMPT and SIRT1, and the endogenous control gene was β-actin. Measurement values of each gene were normalized by measurement values of β-actin.

ATP5A1 = assay: Test Example 1: real-time PCR of ATP5A1 mRNA expression in HHORSCs cultured with KIT13; format: cell-based; conditions: Human hair outer root sheath cells (HHORSCs), 5 µg/ml, 7 hours; mRNA normalized by 18S rRNA; vs culture medium not containing KIT13; FIG. 5
Method: as §1, §2

SIRT1 [4] = assay: Test Example 2: real-time PCR of SIRT1 mRNA expression in femoral muscle of mice given KIT13; format: in vivo; conditions: four-week-old male c57BL6J mice, by drinking water, 20 µg/kg for four weeks; femoral muscles; mRNA normalized by β-actin; FIG. 7
Method: as §3, §4

SMILES: CCCCC/C=C\C/C=C\C/C=C\C/C=C\CCCC(=O)O[C@H](COCCCCCCCCCCCCCCCCCC)COP(=O)(O)OCCN [KIT13]
- relative expression level of NRF1 (NRF1): increased
- relative expression level of UQCRC1 (UQCRC1): increased
- relative expression level of SIRT1 (SIRT1 [1]): significantly increased
- relative expression level of NAMPT (NAMPT [2]): significantly increased
- relative expression level of NAMPT in muscle (NAMPT [3]): significantly increased
- relative expression level of ATP5A1 (ATP5A1): increased
- relative expression level of SIRT1 in muscle (SIRT1 [4]): significantly increased
